According to patent publication US20240383911A1, “AZAINDAZOLE MACROCYCLE COMPOUNDS AND USES THEREOF” (BROADENBIO CO., LTD, priority 2021, published 2024):

Experiments:
Human Jurkat-E6-1 cells = assay: Detection of IL-2 production by Jurkat cells using ELISA; format: cell-based; conditions: anti-CD3/anti-CD28 stimulation 24 hours, read-out: Percentage of the amount of IL-2 secreted by compound treated vs DMSO-treated cells; for activity at 1 µM: tested compound 1.0 μM; for activity at 0.33 µM: tested compound 0.33 μM
Method: (§1) Tested compounds: compounds prepared in the Examples of this invention.
Human Jurkat-E6-1 cells were incubated with various concentrations of tested compounds for 30 minutes in a humidified incubator at 37° C. and 5% CO2. Cells were transferred to cell culture plates pre-coated with anti-human CD3 antibody, then soluble anti-human CD28 antibody was added, and cells were stimulated for 24 hours at 37° C. and 5% CO2 in a humidified incubator. The cell culture medium was collected after centrifugation, and was then transferred to a 96-well transparent microtiter plate (Thermo) pre-coated with anti-human IL-2 antibody, incubated at room temperature for 2 hours with gently shaking, washed with washing buffer for 4 times, and then followed the ELISA MAX Deluxe Set Human IL-2 (BioLegend) kit procedures, used a microplate reader (Molecular Device, i3X) to read the GD value at 450 nm. The best standard curve was selected by the microplate reader application software, and the corresponding concentration was calculated according to the GD value of the standard. Results are expressed as a percentage (%) of the amount of IL-2 secreted by compound-treated vs DMSO-treated cells.

FLT3 = target: T1, FLT3 (Homo sapiens, UniProt P36888); assay: FLT3 kinase activity inhibition test (HTRF); format: biochemical; conditions: read-out: IC50, inhibitory effects on FLT3 kinase activity
T1 sequence (P36888 27-993): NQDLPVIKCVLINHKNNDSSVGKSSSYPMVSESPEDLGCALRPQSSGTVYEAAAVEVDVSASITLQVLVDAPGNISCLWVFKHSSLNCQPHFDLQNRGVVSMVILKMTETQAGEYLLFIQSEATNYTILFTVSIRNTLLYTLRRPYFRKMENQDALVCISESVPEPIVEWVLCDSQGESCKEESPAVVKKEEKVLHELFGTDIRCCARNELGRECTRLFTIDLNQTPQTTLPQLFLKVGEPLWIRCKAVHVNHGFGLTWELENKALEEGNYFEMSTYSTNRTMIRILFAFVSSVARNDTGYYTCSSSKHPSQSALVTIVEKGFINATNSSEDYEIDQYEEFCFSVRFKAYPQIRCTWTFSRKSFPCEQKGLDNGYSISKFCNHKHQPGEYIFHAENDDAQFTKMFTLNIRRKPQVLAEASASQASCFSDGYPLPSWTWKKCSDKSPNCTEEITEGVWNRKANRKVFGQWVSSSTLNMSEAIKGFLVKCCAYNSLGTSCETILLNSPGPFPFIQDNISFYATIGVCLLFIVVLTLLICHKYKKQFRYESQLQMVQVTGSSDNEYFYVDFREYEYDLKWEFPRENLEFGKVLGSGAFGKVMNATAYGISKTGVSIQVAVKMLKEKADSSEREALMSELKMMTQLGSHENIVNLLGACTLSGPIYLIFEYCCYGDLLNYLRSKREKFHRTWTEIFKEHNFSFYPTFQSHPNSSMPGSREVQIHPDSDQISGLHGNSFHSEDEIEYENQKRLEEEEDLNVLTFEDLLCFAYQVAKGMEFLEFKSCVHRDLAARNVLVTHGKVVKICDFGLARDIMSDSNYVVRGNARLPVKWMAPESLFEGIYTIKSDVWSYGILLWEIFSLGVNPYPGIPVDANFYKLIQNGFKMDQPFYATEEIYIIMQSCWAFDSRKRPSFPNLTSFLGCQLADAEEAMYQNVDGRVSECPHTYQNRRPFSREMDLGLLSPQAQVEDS
Method: as §1
(§2) Prepare compound stock solution: dissolve the test compound in 100% DMSO to make a 10 mM stock solution. Dilute the stock solution of the test compound by 5 times with 100% DMSO, make a 4-fold equal dilution in a 96-well dilution plate, add 1 μL of the compound to 39 μL of kinase reaction buffer (1×kinase buffer, 5 mM MgCl2, 1 mM DTT), and shake on a microplate shaker for 20 minutes. 4×Positive control (4 μL of positive compound solution of the starting concentration, add 196 μL of kinase buffer) and 4×negative control (4 μL of 100% DMSO, add 196 μL of kinase buffer).
(§3) (1) Use 1×kinase reaction buffer to prepare 2.5×FLT3 kinase solution (160 μM), transfer 2 μL of the kinase solution to the 384 reaction plate, and add 1 μL of the test compound solution of gradient concentration to the 384 reaction plate (Greiner, Cat #784075), centrifuge for 1 minute (1000 rpm), and incubate at 25° C. for 10 minutes.
(§4) (2) Use 1×kinase reaction buffer to prepare 2.5×TK-substrate-biotin (2.5 μM) and 2.5×ATP (2.5 μM), mix well, and add 2 μL of the TK-substrate-biotin/ATP solution to the 384 reaction plate, centrifuge for 30 seconds (1000 rpm), and incubate at 25° C. for 40 minutes.
(§5) (3) Use HTRF detection buffer to prepare 2×Sa-XL 665 (125 nM) and 1×TK-antibody-Cryptate. Add 5 μL of a mixture of Sa-XL 665 and TK-antibody-Cryptate solutions to each well, centrifuge for 30 seconds (1000 rpm), and react at room temperature for 1 hour.
(§6) (4) The fluorescence signal is read using a Biotek multi-function plate reader, and the IC50 (half inhibitory concentration) of the compound is obtained using a four-coefficient nonlinear fitting formula.

HPK1 = HPK1 (Homo sapiens, UniProt Q92918); assay: HPK1 kinase activity inhibition test (ADP-Glo, luminescence); format: biochemical; conditions: 2 μM ATP, 5 nM HPK1, read-out: IC50, inhibitory effects on HPK1 kinase activity
Method: The kinase activity of HPK1 is manifested as activity of autophosphorylation and phosphorylation of downstream substrates. In the process of autophosphorylation, additional substrates are not required, and ATP is consumed to generate ADP. The amount of the product is measured by ADP-Glo reagent and luminescence method to reflect kinase activity.
as §1
Preparation of compound stock solution: dissolve the test compound in 100% DMSO to make a 10 mM stock solution;
Preparation of 4×Kinase Reaction Buffer:
Preparation of 2×HPK1 Kinase Solution:
Preparation of 4×ATP Mixture:
Dilute the stock solution of the test compound by 5 times with 100% DMSO, make a 4-fold equal dilution in a 96-well dilution plate, add 1 μL of the compound to 49 μL of kinase reaction buffer, and shake on a microplate shaker for 20 minutes. Transfer 2 μL of 2×HPK1 kinase solution to 384 reaction plate, add 1 μL of the test compound to the 384 reaction plate (Greiner, Cat #784075), centrifuge for 1 minute (1000 rpm/min), incubate at 25° C. for 10 minutes. Transfer 1 μL of the 4×ATP mixture to a 384 reaction plate, centrifuge for 1 minute (1000 rpm/min), and incubate at 25° C. for 60 minutes. In the reaction system, the final concentration of DMSO is 0.5%. Transfer 4 μL of ADP-Glo to a 384 reaction plate, centrifuge for 1 minute (1000 rpm/min), and incubate at 25° C. for 40 minutes. Transfer 8 μL detection solution to a 384 reaction plate, centrifuge for 1 minute (1000 rpm/min), and incubate at 25° C. for 40 minutes. The […] is read using a Biotek multi-function plate reader, and the IC50 (half inhibitory concentration) of the compound is obtained using a four-coefficient nonlinear fitting formula.

KDR = KDR (Homo sapiens, UniProt P35968); assay: KDR kinase activity inhibition test (HTRF); format: biochemical; conditions: read-out: IC50, inhibitory effects on KDR kinase activity
Method: as §1, §2
as §3, with “2.5×KDR” for “2.5×FLT3”, “(250” for “(160”
as §4, §5, §6

HPK1, sequence (Q92918 whole entry): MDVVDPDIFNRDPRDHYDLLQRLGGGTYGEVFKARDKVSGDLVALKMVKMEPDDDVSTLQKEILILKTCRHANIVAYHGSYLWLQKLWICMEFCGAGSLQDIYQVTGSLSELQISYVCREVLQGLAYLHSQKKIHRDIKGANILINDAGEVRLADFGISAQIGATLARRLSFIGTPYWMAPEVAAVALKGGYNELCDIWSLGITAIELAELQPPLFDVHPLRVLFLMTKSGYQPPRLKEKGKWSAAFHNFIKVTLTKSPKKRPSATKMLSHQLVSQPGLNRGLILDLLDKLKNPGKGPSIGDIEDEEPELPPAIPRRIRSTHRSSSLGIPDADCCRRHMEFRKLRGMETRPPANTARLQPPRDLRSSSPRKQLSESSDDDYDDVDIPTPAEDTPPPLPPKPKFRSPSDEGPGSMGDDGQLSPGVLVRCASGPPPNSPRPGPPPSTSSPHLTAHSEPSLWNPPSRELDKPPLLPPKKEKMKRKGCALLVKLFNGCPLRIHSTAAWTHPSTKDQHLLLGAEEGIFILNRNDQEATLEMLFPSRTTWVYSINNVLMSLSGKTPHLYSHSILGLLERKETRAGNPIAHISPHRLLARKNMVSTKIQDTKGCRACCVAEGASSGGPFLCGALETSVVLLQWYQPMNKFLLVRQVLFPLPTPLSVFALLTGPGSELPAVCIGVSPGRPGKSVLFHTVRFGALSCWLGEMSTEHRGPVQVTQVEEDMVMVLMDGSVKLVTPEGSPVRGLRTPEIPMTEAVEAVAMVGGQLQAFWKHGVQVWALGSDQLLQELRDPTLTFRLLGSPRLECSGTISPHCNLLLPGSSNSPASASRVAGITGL
KDR, sequence (P35968 20-1356): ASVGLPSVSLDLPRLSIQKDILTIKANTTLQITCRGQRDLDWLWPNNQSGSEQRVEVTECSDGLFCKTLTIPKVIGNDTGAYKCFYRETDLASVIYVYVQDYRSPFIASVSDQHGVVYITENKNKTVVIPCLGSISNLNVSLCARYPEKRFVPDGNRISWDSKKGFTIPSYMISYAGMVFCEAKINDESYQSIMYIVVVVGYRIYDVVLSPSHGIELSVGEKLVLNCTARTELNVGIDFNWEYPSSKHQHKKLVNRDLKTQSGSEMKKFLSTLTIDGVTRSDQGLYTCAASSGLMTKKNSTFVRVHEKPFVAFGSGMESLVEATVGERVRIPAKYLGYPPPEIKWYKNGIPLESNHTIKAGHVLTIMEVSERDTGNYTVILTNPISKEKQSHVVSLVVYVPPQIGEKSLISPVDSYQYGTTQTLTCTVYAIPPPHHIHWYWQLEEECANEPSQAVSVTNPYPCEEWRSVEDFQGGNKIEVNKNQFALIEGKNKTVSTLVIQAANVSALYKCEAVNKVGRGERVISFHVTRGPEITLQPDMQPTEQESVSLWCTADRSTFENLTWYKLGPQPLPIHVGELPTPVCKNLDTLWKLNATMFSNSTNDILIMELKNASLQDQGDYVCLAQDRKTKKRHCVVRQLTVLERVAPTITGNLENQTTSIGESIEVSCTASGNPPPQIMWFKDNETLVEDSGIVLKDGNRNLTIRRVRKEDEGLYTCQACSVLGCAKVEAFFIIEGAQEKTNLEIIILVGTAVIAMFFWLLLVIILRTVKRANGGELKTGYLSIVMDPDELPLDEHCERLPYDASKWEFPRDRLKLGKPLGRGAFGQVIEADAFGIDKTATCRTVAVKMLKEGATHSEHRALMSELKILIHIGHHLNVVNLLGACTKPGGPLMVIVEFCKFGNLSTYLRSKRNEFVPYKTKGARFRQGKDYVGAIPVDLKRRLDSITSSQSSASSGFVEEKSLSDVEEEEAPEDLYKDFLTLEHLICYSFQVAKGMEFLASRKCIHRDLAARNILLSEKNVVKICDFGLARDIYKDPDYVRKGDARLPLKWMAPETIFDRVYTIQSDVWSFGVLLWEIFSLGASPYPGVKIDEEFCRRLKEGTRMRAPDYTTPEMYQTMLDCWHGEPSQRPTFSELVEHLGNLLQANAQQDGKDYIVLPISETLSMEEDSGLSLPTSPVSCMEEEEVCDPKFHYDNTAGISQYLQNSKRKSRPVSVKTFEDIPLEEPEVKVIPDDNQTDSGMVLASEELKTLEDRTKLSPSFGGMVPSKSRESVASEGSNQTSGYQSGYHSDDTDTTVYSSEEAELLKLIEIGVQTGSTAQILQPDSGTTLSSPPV

Compound | IC50 (FLT3) [nM] | IC50 (HPK1) [nM] | IC50 (KDR) [nM] | activity at 1 µM (Human Jurkat-E6-1 cells) [%] | activity at 0.33 µM (Human Jurkat-E6-1 cells) [%]
O[C@H]1COc2cc(ccc2N2CCN3CCOC[C@H]3C2)-c2n[nH]c3cnc(cc23)-c2c(F)cccc2OC1 [Compound 119, (9R)-5-[(9aR)-octahydropyrazino[2,1-c][1,4]oxazin-8-yl]-16-fluoro-7,11-dioxa-19,22,23-triazapentacyclo[16.5.2.1^2,6.0^12,17.0^21,24]hexacosa-1(23),2,4,6(26),12(17),13,15,18,20,24-decaen-9-ol] | ≤ 5 | 5 to 50 | ≤ 5 |  | 591
OCCN1C2CCC1CN(c1ccc3cc1OCCCOc1cccc(F)c1-c1cc4c-3n[nH]c4cn1)C2 [Compound 145, 2-(3-{16-fluoro-7,11-dioxa-19,22,23-triazapentacyclo[16.5.2.1^2,6.0^12,17.0^21,24]hexacosa-1(23),2,4,6(26),12(17),13,15,18,20,24-decaen-5-yl}-3,8-diazabicyclo[3.2.1]octan-8-yl)ethan-1-ol] |  | ≤ 5 |  | 512 | 
Fc1cccc2c1-c1cc3c(n[nH]c3cn1)-c1ccc(N3CC4CC(C3)N4C3COC3)c(c1)OCCCO2 [Compound 146, 16-fluoro-5-[6-(oxetan-3-yl)-3,6-diazabicyclo[3.1.1]heptan-3-yl]-7,11-dioxa-19,22,23-triazapentacyclo[16.5.2.1^2,6.0^12,17.0^21,24]hexacosa-1(23),2,4,6(26),12(17),13,15,18,20,24-decaene] |  | ≤ 5 |  | 476 | 
Fc1cccc2c1-c1cc3c(n[nH]c3cn1)-c1ccc(N3CC4CC(C3)N4CC3CCOCC3)c(c1)OCCCO2 [Compound 147, 16-fluoro-5-{6-[(oxan-4-yl)methyl]-3,6-diazabicyclo[3.1.1]heptan-3-yl}-7,11-dioxa-19,22,23-triazapentacyclo[16.5.2.1^2,6.0^12,17.0^21,24]hexacosa-1(23),2,4,6(26),12(17),13,15,18,20,24-decaene] |  | ≤ 5 |  |  | 429

Further lines, with some results ahead:

IC50 (FLT3) [nM] | IC50 (HPK1) [nM] | IC50 (KDR) [nM] | Compound | activity at 1 µM (Human Jurkat-E6-1 cells) [%] | activity at 0.33 µM (Human Jurkat-E6-1 cells) [%]
≤ 5 | ≤ 5 | 5 to 50 | Fc1cccc2c1-c1cc3c(n[nH]c3cn1)-c1ccc(N3CCNCC3)c(c1)OCCCOC2 [Compound 10, 17-fluoro-5-(piperazin-1-yl)-7,11-dioxa-20,23,24-triazapentacyclo[17.5.2.1^2,6.0^13,18.0^22,25]heptacosa-1(24),2(27),3,5,13,15,17,19,21,25-decaene] | 298 | 
≤ 5 | ≤ 5 | 5 to 50 | OCCN1CCN(c2ccc3cc2OCCCOCc2cccc(F)c2-c2cc4c-3n[nH]c4cn2)CC1 [Compound 12, 17-fluoro-5-(4-(2-hydroxyethyl)piperazin-1-yl)-7,11-dioxa-20,23,24-triazapentacyclo[17.5.2.1^2,6.0^13,18.0^22,25]heptacosa-1(24),2(27),3,5,13,15,17,19,21,25-decaene] |  | 
≤ 5 | ≤ 5 | ≤ 5 | Fc1cccc2c1-c1cc3c(n[nH]c3cn1)-c1ccc(N3CCN4CCOC[C@H]4C3)c(c1)OCCCO2 [Compound 102, 5-[(9aR)-octahydropyrazino[2,1-c][1,4]oxazin-8-yl]-16-fluoro-7,11-dioxa-19,22,23-triazapentacyclo[16.5.2.1^2,6.0^12,17.0^21,24]hexacosa-1(23),2,4,6(26),12(17),13,15,18,20,24-decaene] | 702 | 
≤ 5 | ≤ 5 | ≤ 5 | Fc1cccc2c1-c1cc3c(n[nH]c3cn1)-c1ccc(N3CCN4CCOC[C@H]4C3)c(c1)OCCCOC2 [Compound 103, 5-[(9aR)-octahydropyrazino[2,1-c][1,4]oxazin-8-yl]-17-fluoro-7,11-dioxa-20,23,24-triazapentacyclo[17.5.2.1^2,6.0^13,18.0^22,25]heptacosa-1(24),2,4,6(27),13(18),14,16,19,21,25-decaene] |  | 580
 | ≤ 5 |  | CN1C[C@H]2C[C@@H]1CN2c1ccc2cc1OCCCOCc1cccc(F)c1-c1cc3c-2n[nH]c3cn1 [Compound 152, 17-fluoro-5-[(1R,4R)-5-methyl-2,5-diazabicyclo[2.2.1]heptan-2-yl]-7,11-dioxa-20,23,24-triazapentacyclo[17.5.2.1^2,6.0^13,18.0^22,25]heptacosa-1(24),2,4,6(27),13(18),14,16,19,21,25-decaene] |  | 432
 | ≤ 5 |  | Fc1cccc2c1-c1cc3c(n[nH]c3cn1)-c1ccc(N3C[C@@H]4C[C@H]3CN4C3COC3)c(c1)OCCCOC2 [Compound 153, 17-fluoro-5-[(1S,4S)-5-(oxetan-3-yl)-2,5-diazabicyclo[2.2.1]heptan-2-yl]-7,11-dioxa-20,23,24-triazapentacyclo[17.5.2.1^2,6.0^13,18.0^22,25]heptacosa-1(24),2,4,6(27),13(18),14,16,19,21,25-decaene] |  | 369
